In US9149038B2, “4-amino-6-(heterocyclic)picolinates and 6-amino-2-(heterocyclic)pyrimidine-4-carboxylates and their use as herbicides” (Dow AgroSciences LLC, priority 2013, dated 2015):
Like-named read-outs stand apart in the source and are kept apart here.

Legend:
[1] = system: Key Broadleaf Weed and Crop Species; experiment: Post-Emergent Test II: postemergent herbicidal activity, visual rating after 14 d (Table 7); type: in vivo; conditions: post-emergence, 336 h; for pest or weed control at 35 g/ha: 35 g ai/ha; for pest or weed control at 70 g/ha: 70 g ai/ha; for pest or weed control at 140 g/ha: 140 g ai/ha
Description: (§1) Herbicidal evaluations were made visually on a scale of 0 to 100 where 0 represents no activity and 100 represents complete plant death.
(§2) Seeds or nutlets of the desired test plant species were planted in Sun Gro Metro-Mix® 360 planting mixture, which typically has a pH of 6.0 to 6.8 and an organic matter content of about 30 percent, in plastic pots with a surface area of 64 square centimeters (cm^2). When required to ensure good germination and healthy plants, a fungicide treatment and/or other chemical or physical treatment was applied. The plants were grown for 7-21 d in a greenhouse with an approximate 15 h photoperiod which was maintained at about 23-29° C. during the day and 22-28° C. during the night. Nutrients and water were added on a regular basis and supplemental lighting was provided with overhead metal halide 1000-Watt lamps as necessary. The plants were employed for testing when they reached the first or second true leaf stage.
(§3) A weighed amount, determined by the highest rate to be tested, of each test compound was placed in a 25 mL glass vial and was dissolved in 4 mL of a 97:3 v/v mixture of acetone and DMSO to obtain concentrated stock solutions. […] The concentrated stock solutions obtained were diluted with 20 mL of an aqueous mixture containing acetone, water, isopropyl alcohol, DMSO, Atplus 411F crop oil concentrate, and Triton® X-155 surfactant in a 48.5:39:10:1.5:1.0:0.02 v/v ratio to obtain spray solutions containing the highest application rates. Additional application rates were obtained by serial dilution of 12 mL of the high rate solution into a solution containing 2 mL of a 97:3 v/v mixture of acetone and DMSO and 10 mL of an aqueous mixture containing acetone, water, isopropyl alcohol, DMSO, Atplus 411F crop oil concentrate, and Triton X-155 surfactant in a 48.5:39:10:1.5:1.0:0.02 v/v ratio to obtain ½×, ¼×, ⅛× and 1/16× rates of the high rate. Compound requirements are based upon a 12 mL application volume at a rate of 187 liters per hectare (L/ha). Formulated compounds were applied to the plant material with an overhead Mandel track sprayer equipped with 8002E nozzles calibrated to deliver 187 L/ha over an application area of 0.503 square meters at a spray height of 18 inches (43 cm) above the average plant canopy height. Control plants were sprayed in the same manner with the solvent blank.
(§4) The treated plants and control plants were placed in a greenhouse as described above and watered by subirrigation to prevent wash-off of the test compounds. After 14 d, the condition of the test plants as compared with that of the untreated plants was determined visually and scored on a scale of 0 to 100 percent where 0 corresponds to no injury and 100 corresponds to complete kill and are presented as indicated in Table 4.

[2] = system: Key Grass and Sedge Weeds as well as Grass Crops; experiment: Post-Emergent Test II: postemergent herbicidal activity, visual rating after 14 d (Table 8); type: in vivo; conditions: post-emergence, 336 h; for pest or weed control at 35 g/ha: 35 g ai/ha; for pest or weed control at 70 g/ha: 70 g ai/ha; for pest or weed control at 140 g/ha: 140 g ai/ha
Description: as §1, §2, §3, §4

[3] = lambsquarters (Chenopodium album), read-out: Visual Growth Reduction (%) 14 Days After Application CHEAL
[4] = oilseed rape, canola (Brassica napus), read-out: Visual Growth Reduction (%) 14 Days After Application BRSNN
[5] = redroot pigweed (Amaranthus retroflexus), read-out: Visual Growth Reduction (%) 14 Days After Application AMARE
[6] = sunflower (Helianthus annuus), read-out: Visual Growth Reduction (%) 14 Days After Application HELAN
[7] = velvetleaf (Abutilon theophrasti), read-out: Visual Growth Reduction (%) 14 Days After Application ABUTH
[8] = wild poinsettia (Euphorbia heterophylla), read-out: Visual Growth Reduction (%) 14 Days After Application EPHHL
[9] = giant foxtail (Setaria faberi), read-out: Visual Growth Reduction (%) 14 Days After Application SETFA
[10] = maize, corn (Zea mays), read-out: Visual Growth Reduction (%) 14 Days After Application ZEAMX
[11] = rice (Oryza sativa), read-out: Visual Growth Reduction (%) 14 Days After Application ORYSA
[12] = wheat, spring (Triticum aestivum), read-out: Visual Growth Reduction (%) 14 Days After Application TRZAS
[13] = yellow nutsedge (Cyperus esculentus), read-out: Visual Growth Reduction (%) 14 Days After Application CYPES
[14] = barnyardgrass (Echinochloa crus-galli), read-out: Visual Growth Reduction (%) 14 Days After Application ECHCG

Structure (SMILES)	pest or weed control at 35 g/ha [1, 3] [%]	pest or weed control at 70 g/ha [1, 3] [%]	pest or weed control at 140 g/ha [1, 3] [%]	pest or weed control at 35 g/ha [1, 4] [%]	pest or weed control at 70 g/ha [1, 4] [%]	pest or weed control at 140 g/ha [1, 4] [%]	pest or weed control at 35 g/ha [1, 5] [%]	pest or weed control at 70 g/ha [1, 5] [%]	pest or weed control at 140 g/ha [1, 5] [%]	pest or weed control at 35 g/ha [1, 6] [%]	pest or weed control at 70 g/ha [1, 6] [%]	pest or weed control at 140 g/ha [1, 6] [%]	pest or weed control at 35 g/ha [1, 7] [%]	pest or weed control at 70 g/ha [1, 7] [%]	pest or weed control at 140 g/ha [1, 7] [%]	pest or weed control at 35 g/ha [1, 8] [%]	pest or weed control at 70 g/ha [1, 8] [%]	pest or weed control at 140 g/ha [1, 8] [%]	pest or weed control at 35 g/ha [2, 10] [%]	pest or weed control at 70 g/ha [2, 10] [%]	other results
COC(=O)c1nc(-c2ccc3c(c2Cl)OC(F)(F)O3)cc(N)c1Cl [Compound 33]	75 to 84	75 to 84	75 to 84	60 to 74	60 to 74	60 to 74	60 to 74	75 to 84	95 to 100	75 to 84	85 to 94	85 to 94	60 to 74	75 to 84	75 to 84	0 to 29	60 to 74	60 to 74	60 to 74	60 to 74	pest or weed control at 35 g/ha [2, 9]: 0 to 29%; pest or weed control at 70 g/ha [2, 9]: 0 to 29%; pest or weed control at 140 g/ha [2, 9]: 45 to 59%; pest or weed control at 140 g/ha [2, 10]: 75 to 84%; pest or weed control at 35 g/ha [2, 11]: 0 to 29%; pest or weed control at 70 g/ha [2, 11]: 0 to 29%; pest or weed control at 140 g/ha [2, 11]: 0 to 29%; pest or weed control at 35 g/ha [2, 12]: 0 to 29%; pest or weed control at 70 g/ha [2, 12]: 0 to 29%; pest or weed control at 140 g/ha [2, 12]: 0 to 29%; pest or weed control at 35 g/ha [2, 13]: 95 to 100%; pest or weed control at 140 g/ha [2, 13]: 95 to 100%
COC(=O)c1nc(-c2cc3c(cc2F)OC(F)(F)O3)c(F)c(N)c1OC [Compound 22, Methyl 4-amino-5-fluoro-3-methoxy-6-(2,2,6-trifluorobenzo[d][1,3]dioxol-5-yl)picolinate]	0 to 29	0 to 29	0 to 29	0 to 29	0 to 29	0 to 29	0 to 29	0 to 29	0 to 29	85 to 94	85 to 94	85 to 94	0 to 29	0 to 29	0 to 29	30 to 44	45 to 59	45 to 59	0 to 29	60 to 74	pest or weed control at 35 g/ha [2, 14]: 0 to 29%; pest or weed control at 70 g/ha [2, 14]: 0 to 29%; pest or weed control at 140 g/ha [2, 14]: 45 to 59%; pest or weed control at 140 g/ha [2, 10]: 75 to 84%; pest or weed control at 35 g/ha [2, 11]: 0 to 29%; pest or weed control at 70 g/ha [2, 11]: 0 to 29%; pest or weed control at 140 g/ha [2, 11]: 0 to 29%; pest or weed control at 35 g/ha [2, 12]: 0 to 29%; pest or weed control at 70 g/ha [2, 12]: 45 to 59%; pest or weed control at 140 g/ha [2, 12]: 60 to 74%; pest or weed control at 35 g/ha [2, 13]: 95 to 100%; pest or weed control at 70 g/ha [2, 13]: 95 to 100%; pest or weed control at 140 g/ha [2, 13]: 95 to 100%
Nc1cc(-c2ccc3c(c2Cl)OC(F)(F)O3)nc(C(=O)O)c1Cl [Compound 34]	75 to 84	75 to 84	75 to 84	75 to 84	75 to 84	85 to 94	85 to 94	95 to 100	95 to 100	75 to 84	85 to 94	85 to 94	45 to 59	60 to 74	75 to 84	45 to 59	60 to 74	60 to 74	60 to 74	60 to 74	pest or weed control at 35 g/ha [2, 9]: 75 to 84%; pest or weed control at 70 g/ha [2, 9]: 75 to 84%; pest or weed control at 140 g/ha [2, 9]: 75 to 84%; pest or weed control at 140 g/ha [2, 10]: 60 to 74%; pest or weed control at 35 g/ha [2, 11]: 0 to 29%; pest or weed control at 70 g/ha [2, 11]: 0 to 29%; pest or weed control at 140 g/ha [2, 11]: 0 to 29%; pest or weed control at 35 g/ha [2, 12]: 45 to 59%; pest or weed control at 70 g/ha [2, 12]: 60 to 74%; pest or weed control at 140 g/ha [2, 12]: 60 to 74%; pest or weed control at 35 g/ha [2, 13]: 0 to 29%; pest or weed control at 70 g/ha [2, 13]: 0 to 29%; pest or weed control at 140 g/ha [2, 13]: 0 to 29%
